Laboratory results published in article PMC7896091, “Synthesis of novel phytol-derived γ-butyrolactones and evaluation of their biological activity” (Scientific Reports, 2021).

Key:
LoVo/DX cells = assay: Antiproliferative activity, SRB assay, doxorubicin resistant subline; format: cell-based, human
Experimental: Cell lines were cultured according to the protocol described before. […] All culture media were supplemented with 2 mM L-glutamine (Sigma-Aldrich, Germany), 100 units/mL penicillin, and 100 µg/mL streptomycin (both from Polfa Tarchomin S.A., Poland). All cell lines were grown at 37 °C with 5% CO2 humidified atmosphere. The solutions of the compounds (50 mM) were prepared by dissolving the substances in DMSO (Sigma Aldrich, Germany). […] The in vitro cytotoxic effect of all agents was examined using the MTT (MV4-11) or SRB assay, described previously. […] Each compound in each concentration was tested in triplicate in a single experiment, which was repeated 3–5 times.

MV4-11 cells = assay: Antiproliferative activity, MTT assay; format: cell-based, human; settings: SI = IC50 BALB/3T3 / IC50 MV4-11
Experimental: Human biphenotypic B myelomonocytic leukemia MV4-11, human colon cancer LoVo cell line and normal mouse fibroblast BALB/3T3 cells were obtained from American Type Culture Collection (Rockville, Maryland, USA), human lung carcinoma A549 cells were obtained from European Collection of Authenticated Cell Cultures (UK). All the cell lines are being maintained at the Hirszfeld Institute of Immunology and Experimental Therapy, PAS, Wroclaw, Poland and were cultured according the procedure described before.
Cell lines were cultured according to the protocol described before. MV4-11 cells were cultured in RPMI 1640 medium (Gibco, UK) with 1.0 mM sodium pyruvate, and 10% fetal bovine serum (FBS) (all from Sigma-Aldrich, Germany). A549, LoVo and LoVo/DX cells were cultured in RPMI 1640 + Opti-MEM (1:1) (both from Gibco, UK) supplemented with 5% fetal bovine serum, 1.0 mM sodium pyruvate (LoVo and LoVo/DX cells) (all from Sigma Aldrich Germany) and 0.1 μg/mL doxorubicin chloride (Accord) (only LoVo/DX cells). BALB/3T3 cells in Dulbecco medium (IIET, Poland) supplemented with 10% fetal bovine serum (Sigma-Aldrich, Germany). All culture media were supplemented with 2 mM L-glutamine (Sigma-Aldrich, Germany), 100 units/mL penicillin, and 100 µg/mL streptomycin (both from Polfa Tarchomin S.A., Poland). All cell lines were grown at 37 °C with 5% CO2 humidified atmosphere.
The solutions of the compounds (50 mM) were prepared by dissolving the substances in DMSO (Sigma Aldrich, Germany). Then the tested compounds were diluted in culture medium to reach the final concentrations of 625, 125, 25 and 5 μM. Before adding of the tested compounds (24 h prior), the cells were plated in 96-well plates (Sarstedt, Germany) at a density of 1 × 10^4 or 0.5 × 10^4 (A549) cells per well. The assay was performed after 72 h of exposure to 625, 125, 25 and 5 μM of the tested agents. The in vitro cytotoxic effect of all agents was examined using the MTT (MV4-11) or SRB assay, described previously. The results were calculated as an IC50 (inhibitory concentration 50%) the concentration of tested agent, which is cytotoxic for 50% of the cancer cells. Each compound in each concentration was tested in triplicate in a single experiment, which was repeated 3–5 times.

Myzus persicae = assay: EPG monitoring of aphid probing and feeding (no-choice test); format: in vivo; settings: 8-h EPG
Experimental: The peach potato aphids Myzus persicae (Sulzer) and the Chinese cabbage Brassica rapa subsp. pekinensis (Lour.) Hanelt were reared in laboratory at 20 °C, 65% r.h., and L16:8D photoperiod. One to seven days old apterous females of M. persicae and 3-week old plants with 4–5 fully developed leaves were used for experiments. M. persicae were obtained from the laboratory culture maintained at the Department of Botany and Ecology for many generations since 2000. All experiments were carried out under the same conditions of temperature, relative humidity, and photoperiod. The bioassays were started at 10–11.a.m. Each compound was dissolved in 70% ethanol to obtain the recommended 0.1% solution[40]. All compounds were applied on the adaxial and abaxial leaf surfaces by immersing a leaf in the ethanolic solution of a given compound for 30 s.[20]. Control leaves of similar size were immersed in 70% ethanol that was used as a solvent for the studied compounds. Experiments were performed 1 h after the compounds application to allow the evaporation of the solvent. Every plant and aphid were used only once.
Aphid probing and the phloem sap uptake by M. persicae was monitored using the technique of electronic registration of aphid probing in plant tissues, known as EPG (= Electrical Penetration Graph), that is frequently employed in insect–plant relationship studies considering insects with sucking-piercing mouthparts[42]–[44]. In this experimental set-up, aphid and plant are connected to electrodes and thus made parts of an electric circuit, which is completed when the aphid inserts its stylets into the plant. Weak voltage is supplied in the circuit, and all changing electric properties are recorded as EPG waveforms that can be correlated with aphid activities and stylet position in plant tissues[45],[46]. The parameters describing aphid behaviour during probing and feeding, such as total time of probing, proportion of phloem patterns E1 and E2, number of probes, etc., are good indicators of plant suitability or interference of probing by chemical or physical factors in individual plant tissues[44]–[46]. In the present study, aphids were attached to a golden wire electrode with conductive silver paint (epgsystems. eu) and starved for 1 h prior to the experiment. Probing behaviour of 12 apterous females/studied compound and control was monitored for 8 h continuously with Giga-4 and Giga-8 DC EPG with 1 GΩ of input resistance recording equipment (EPG Systems, Wageningen, The Netherlands). Each aphid was given access to a freshly prepared plant and each aphid/plant combination was used only once. Various behavioural phases were labelled manually using the Stylet + software (www.epgsystems.eu). The following aphid behaviours were distinguished: no penetration (waveform 'np' – aphid stylets outside the plant), pathway phase—penetration of non-phloem tissues (waveforms 'ABC'), phloem phase (salivation into sieve elements, waveform ‘E1’ and ingestion of phloem sap, waveform ‘E2’), and xylem phase (ingestion of xylem sap, waveform 'G'). Waveform ‘G’ occurred rarely irrespective of the treatment. Therefore, in all calculations the xylem phase was added to the pathway phase and termed as probing in non-phloem tissues. The E1/E2 transition patterns were included in E2. Waveform patterns that were not terminated before the end of the experimental period (8 h) were not excluded from the calculations. The parameters derived from EPG recordings were analyzed according to their frequency and duration in configuration related to activities in peripheral and vascular tissues.
All statistical calculations related to data of the no-choice test were performed using StatSoft, Inc. (2014) STATISTICA (data analysis software system), version 12, www.statsoft.com. […]

[1] = 0.1% solution, mean ± SE, n = 12
[2] = activities in non-phloem tissues, mean ± SE, n = 10-12
[3] = activities in sieve elements, mean ± SE, n = 10-12

`C=CC(C)(CCCC(C)CCCC(C)CCCC(C)C)CC(=O)O` (stereo not shown) [compound 3, 3,7,11,15-tetramethyl-3-vinylhexadecanoic acid] was tested, and the IC50 (LoVo/DX cells; Homo sapiens, LoVo/DX, 72 h exposure, SRB, mean ± SD, n.a = no activity in concentration of 5, 25, 125, 625 μM) was 55 ± 1.5 µM, the “Selectivity index SI, LoVo/DX” value (LoVo/DX cells; SI = IC50 BALB/3T3 / IC50 LoVo/DX) was 2.64 and the “Selectivity index SI, MV4-11” value (MV4-11 cells) was 3.69. For the same molecule, the “Mean duration of probing (C + G + E)” value (Myzus persicae; [1]) was 1.6 ± 0.7 h, the Number of probes (Myzus persicae; [1]) was 25.3 ± 6.7 and the “Total duration of pathway (C)” value (Myzus persicae; [1]) was 2.9 ± 0.5 h. For the same molecule, the “Total duration of phloem phase (E)” value (Myzus persicae; [1]) was 4.1 ± 0.8 h, the “Total duration of probing (C + G + E)” value (Myzus persicae; [1]) was 7.2 ± 0.2 h and the “Number of probes before first phloem phase” value (Myzus persicae; [2]) was 15.7 ± 5.9. The “Time from first probe to first phloem phase” value (Myzus persicae; [2]) was 2.0 ± 0.5 h, the “Duration of first phloem phase” value (Myzus persicae; [3]) was 3.3 ± 0.9 h and the “Total duration of phloem salivation E1” value (Myzus persicae; [3]) was 9.0 ± 6.0 min. For the same molecule, the “Total duration of phloem sap ingestion E2” value (Myzus persicae; [3]) was 3.9 ± 0.8 h, the “Number of probes < 3 min” value (Myzus persicae; before first phloem phase, mean ± SE, n = 10-12) was 10.9 ± 4.4 and the “Proportion of salivation in phloem phase” value (Myzus persicae; (duration of E1 / duration of E1 + E2)*100) was 8.4%. The “Proportion of phloem phase in total probing” value (Myzus persicae; index = duration of phloem phase E / duration of probing C + G + E) was 52.6%.
